Measurements taken from ChEMBL document CHEMBL5036320, “Discovery of Icenticaftor (QBW251), a Cystic Fibrosis Transmembrane Conductance Regulator Potentiator with Clinical Efficacy in Cystic Fibrosis and Chronic Obstructive Pulmonary Disease” (J Med Chem, 2021).
In brackets after ≈: the same amount, converted by molar mass. One block for each compound: values may come before it.

Columns and labels:
[1] = Clearance in Sprague-Dawley rat at 3 mg/kg, po and 0.5 mg/kg, iv measured upto 48 hrs by LC-MS/MS analysis; type: ADME, organism-based; conditions: in vivo
[2] = Solubility of the compound at pH 6.8; type: physicochemical; conditions: buffer
[3] = Cmax in Sprague-Dawley rat at 3 mg/kg, po and 0.5 mg/kg, iv measured upto 48 hrs by LC-MS/MS analysis; type: ADME, organism-based; design: dose 3 mg/kg, time <=48; conditions: in vivo
[4] = molecular target: T1, Cystic fibrosis transmembrane conductance regulator (Homo sapiens, UniProt P13569, F508DEL); assay: Potentiation of CFTR F508del mutant (unknown origin) expressed in CHO cells assessed as chloride transport by measuring membrane potential incubated for 5 to 30 mins in presence of forskolin by Quattro assay; type: cell-based
T1 sequence (P13569 as listed by the source): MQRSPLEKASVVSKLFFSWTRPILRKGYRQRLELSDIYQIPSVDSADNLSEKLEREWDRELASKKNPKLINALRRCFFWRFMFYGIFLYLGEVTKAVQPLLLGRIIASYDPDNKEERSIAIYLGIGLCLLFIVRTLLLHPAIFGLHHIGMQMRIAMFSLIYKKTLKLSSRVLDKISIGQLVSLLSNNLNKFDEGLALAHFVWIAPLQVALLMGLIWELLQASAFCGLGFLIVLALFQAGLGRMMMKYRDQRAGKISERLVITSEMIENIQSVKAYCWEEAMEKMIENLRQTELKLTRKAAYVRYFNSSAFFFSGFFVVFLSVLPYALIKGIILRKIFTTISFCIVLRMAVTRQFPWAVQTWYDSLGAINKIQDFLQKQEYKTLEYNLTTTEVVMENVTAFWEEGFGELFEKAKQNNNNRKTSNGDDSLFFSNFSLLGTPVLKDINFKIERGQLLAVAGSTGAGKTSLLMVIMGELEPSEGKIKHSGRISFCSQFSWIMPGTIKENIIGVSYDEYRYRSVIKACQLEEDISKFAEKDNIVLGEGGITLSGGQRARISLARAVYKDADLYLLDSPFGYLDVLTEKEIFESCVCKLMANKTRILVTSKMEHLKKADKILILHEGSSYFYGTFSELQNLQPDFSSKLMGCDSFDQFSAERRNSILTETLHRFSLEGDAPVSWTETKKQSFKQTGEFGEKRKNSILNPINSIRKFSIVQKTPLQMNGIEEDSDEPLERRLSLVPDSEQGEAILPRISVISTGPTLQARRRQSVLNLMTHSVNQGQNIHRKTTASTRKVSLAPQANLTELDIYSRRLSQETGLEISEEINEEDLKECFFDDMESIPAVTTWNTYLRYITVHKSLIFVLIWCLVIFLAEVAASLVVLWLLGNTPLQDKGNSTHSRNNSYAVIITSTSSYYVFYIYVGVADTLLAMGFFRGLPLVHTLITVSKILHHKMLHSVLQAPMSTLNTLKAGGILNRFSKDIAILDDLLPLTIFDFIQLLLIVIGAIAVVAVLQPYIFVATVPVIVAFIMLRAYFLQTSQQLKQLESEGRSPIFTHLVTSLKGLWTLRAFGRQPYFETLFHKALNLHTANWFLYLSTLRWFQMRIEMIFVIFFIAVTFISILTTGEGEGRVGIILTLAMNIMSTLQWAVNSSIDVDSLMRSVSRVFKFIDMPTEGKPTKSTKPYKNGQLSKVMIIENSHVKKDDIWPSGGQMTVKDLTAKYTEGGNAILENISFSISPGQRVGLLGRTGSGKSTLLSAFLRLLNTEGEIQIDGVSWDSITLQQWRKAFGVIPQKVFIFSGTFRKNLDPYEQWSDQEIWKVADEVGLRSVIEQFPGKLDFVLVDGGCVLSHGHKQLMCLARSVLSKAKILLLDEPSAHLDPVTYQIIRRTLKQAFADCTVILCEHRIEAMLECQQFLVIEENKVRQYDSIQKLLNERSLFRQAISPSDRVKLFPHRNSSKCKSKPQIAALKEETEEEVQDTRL

[5] = system: Cystic fibrosis transmembrane conductance regulator (Homo sapiens), P13569 [F508del]; assay: Potentiation of CFTR F508del mutant (unknown origin) expressed in CHO cells assessed as chloride transport by measuring membrane potential incubated for 5 to 30 mins in presence of forskolin by Quattro assay relative to PG-01; type: cell-based; design: concentration or dose not given beside the values; conditions: filed as activator, time 5-30 min
Sequence of Cystic fibrosis transmembrane conductance regulator (Homo sapiens), P13569 [F508del] (P13569 as listed by the source): as above

[6] = Mean residence time in Sprague-Dawley rat at 3 mg/kg, po and 0.5 mg/kg, iv measured upto 48 hrs by LC-MS/MS analysis; type: ADME, organism-based; conditions: in vivo
[7] = Oral bioavailability in Sprague-Dawley rat at 3 mg/kg measured upto 48 hrs by LC-MS/MS analysis; type: ADME, organism-based; conditions: in vivo
[8] = Volume of distribution at steady state in Sprague-Dawley rat at 3 mg/kg, po and 0.5 mg/kg, iv measured upto 48 hrs by LC-MS/MS analysis; type: ADME, organism-based; conditions: in vivo, read-out: Vdss
[9] = Mean residence time in Sprague-Dawley rat at 3 mg/kg, po and 1 mg/kg, iv measured upto 48 hrs by LC-MS/MS analysis; type: ADME, organism-based; conditions: in vivo
[10] = molecular target: T2, Cystic fibrosis transmembrane conductance regulator (Homo sapiens, UniProt P13569); assay: Potentiation of wild-type CFTR (unknown origin) expressed in FRT cells assessed as chloride transport by measuring membrane potential in presence of forskolin relative to PG-01; type: cell-based; conditions: filed as activator
Target sequence in this assay (P13569 whole entry, looked up): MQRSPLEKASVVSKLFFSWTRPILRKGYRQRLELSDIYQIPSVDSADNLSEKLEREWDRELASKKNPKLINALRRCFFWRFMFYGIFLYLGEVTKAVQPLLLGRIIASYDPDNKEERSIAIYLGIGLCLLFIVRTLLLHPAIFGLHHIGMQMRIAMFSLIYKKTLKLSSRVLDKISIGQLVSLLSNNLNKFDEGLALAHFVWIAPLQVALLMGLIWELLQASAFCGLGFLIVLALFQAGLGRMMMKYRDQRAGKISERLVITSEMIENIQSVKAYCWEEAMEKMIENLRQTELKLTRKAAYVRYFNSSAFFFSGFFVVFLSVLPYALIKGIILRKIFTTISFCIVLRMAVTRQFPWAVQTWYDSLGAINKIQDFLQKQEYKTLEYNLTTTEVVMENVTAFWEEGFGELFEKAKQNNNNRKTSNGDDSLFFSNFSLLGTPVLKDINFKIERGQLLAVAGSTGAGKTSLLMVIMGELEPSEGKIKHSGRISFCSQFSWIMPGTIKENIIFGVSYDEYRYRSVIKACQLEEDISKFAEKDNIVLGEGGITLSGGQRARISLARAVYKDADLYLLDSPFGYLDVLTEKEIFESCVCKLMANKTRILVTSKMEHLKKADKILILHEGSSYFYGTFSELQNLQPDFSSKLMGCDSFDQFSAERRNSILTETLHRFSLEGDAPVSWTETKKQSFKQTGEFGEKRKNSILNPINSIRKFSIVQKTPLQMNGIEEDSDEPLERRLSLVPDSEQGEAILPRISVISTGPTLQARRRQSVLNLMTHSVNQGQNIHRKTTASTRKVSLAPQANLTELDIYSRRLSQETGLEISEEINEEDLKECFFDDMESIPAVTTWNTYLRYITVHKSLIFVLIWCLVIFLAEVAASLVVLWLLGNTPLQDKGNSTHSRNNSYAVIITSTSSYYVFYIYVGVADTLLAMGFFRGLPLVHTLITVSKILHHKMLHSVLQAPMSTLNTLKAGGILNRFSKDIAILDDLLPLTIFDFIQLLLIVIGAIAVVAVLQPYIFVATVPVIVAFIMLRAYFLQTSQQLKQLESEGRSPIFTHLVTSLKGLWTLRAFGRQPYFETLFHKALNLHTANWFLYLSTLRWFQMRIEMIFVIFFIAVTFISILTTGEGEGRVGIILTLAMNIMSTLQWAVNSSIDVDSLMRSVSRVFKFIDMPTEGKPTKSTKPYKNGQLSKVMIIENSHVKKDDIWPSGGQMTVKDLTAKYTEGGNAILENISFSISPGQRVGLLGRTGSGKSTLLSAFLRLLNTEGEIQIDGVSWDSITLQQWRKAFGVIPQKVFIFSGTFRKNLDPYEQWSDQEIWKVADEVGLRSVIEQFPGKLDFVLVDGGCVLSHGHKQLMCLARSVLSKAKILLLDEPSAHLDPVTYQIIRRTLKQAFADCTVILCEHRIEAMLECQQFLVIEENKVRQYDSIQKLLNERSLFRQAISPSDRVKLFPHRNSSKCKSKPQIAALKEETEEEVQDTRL

[11] = Unbound Cmax in cynomolgus monkey plasma measured at 10 mg/kg, po or 0.1 mg/kg, iv after 48 hrs by LC-MS/MS analysis; type: ADME, organism-based, Macaca fascicularis; conditions: in vivo
[12] = molecular target: T2, Cystic fibrosis transmembrane conductance regulator; assay: Potentiation of wild type CFTR (unknown origin) expressed in HBE cells assessed as change in short circuit current in presence of forskolin and amiloride relative to PG-01; type: cell-based; conditions: filed as activator
Target sequence in this assay (P13569 whole entry, looked up): as above

[13] = Oral bioavailability in cynomolgus monkey at 10 mg/kg after 48 hrs by LC-MS/MS analysis; type: ADME, organism-based, Macaca fascicularis; conditions: in vivo
[14] = Volume of distribution in Sprague-Dawley rat at 3 mg/kg, po and 1 mg/kg, iv measured upto 48 hrs by LC-MS/MS analysis; type: ADME, organism-based; conditions: in vivo
[15] = Unbound Cmax in Sprague-Dawley rat at 3 mg/kg, po and 1 mg/kg, iv measured upto 48 hrs by LC-MS/MS analysis; type: ADME, organism-based; conditions: in vivo
[16] = Volume of distribution at steady state in cynomolgus monkey at 10 mg/kg, po or 0.1 mg/kg, iv after 48 hrs by LC-MS/MS analysis; type: ADME, organism-based, Macaca fascicularis; conditions: in vivo, read-out: Vdss
[17] = Toxicity in human assessed as tolerability upto […], po bid; type: organism-based; conditions: in vivo
[18] = Clearance in Beagle dog blood at 3 mg/kg, po or 0.46 mg/kg, iv after 48 hrs by LC-MS/MS analysis; type: ADME, organism-based, Canis lupus familiaris
[19] = Mean residence time in cynomolgus monkey at 10 mg/kg, po or 0.1 mg/kg, iv after 48 hrs by LC-MS/MS analysis; type: ADME, organism-based, Macaca fascicularis; conditions: in vivo
[20] = Clearance in cynomolgus monkey plasma at 10 mg/kg, po or 0.1 mg/kg, iv after 48 hrs by LC-MS/MS analysis; type: ADME, organism-based, Macaca fascicularis
[21] = molecular target: T2, Cystic fibrosis transmembrane conductance regulator; assay: Potentiation of wild-type CFTR (unknown origin) expressed in FRT cells assessed as chloride transport by measuring membrane potential in presence of forskolin; type: cell-based
Target sequence in this assay (P13569 whole entry): as the sequence (P13569 whole entry, looked up) above

[22] = Oral bioavailability in Beagle dog at 3 mg/kg after 48 hrs by LC-MS/MS analysis; type: ADME, organism-based, Canis lupus familiaris; conditions: in vivo
[23] = Plasma Protein binding in Sprague-Dawley rat at 5 uM incubated for 4 hrs by rapid equilibrium dialysis; type: ADME, cell-free; conditions: read-out: PPB (converted)
[24] = Clearance in Sprague-Dawley rat at 3 mg/kg, po and 1 mg/kg, iv measured upto 48 hrs by LC MS/MS analysis; type: ADME, organism-based; conditions: in vivo
[25] = Volume of distribution at steady state in Beagle dog at 3 mg/kg, po or 0.46 mg/kg, iv after 48 hrs by LC-MS/MS analysis; type: ADME, organism-based, Canis lupus familiaris; conditions: in vivo, read-out: Vdss
[26] = system: Cystic fibrosis transmembrane conductance regulator (Homo sapiens), P13569 [G551D]; assay: Potentiation of CFTR G551D mutant (unknown origin) expressed in FRT cells assessed as chloride transport by measuring membrane potential in presence of forskolin relative to PG-01; type: cell-based; conditions: filed as activator
Sequence of Cystic fibrosis transmembrane conductance regulator (Homo sapiens), P13569 [G551D] (P13569 whole entry G551D): as the sequence (P13569 whole entry, looked up) above, with G551D counted along it

[27] = Clearance in cynomolgus monkey blood at 10 mg/kg, po or 0.1 mg/kg, iv after 48 hrs by LC-MS/MS analysis; type: ADME, organism-based, Macaca fascicularis
[28] = Cmax in Beagle dog at 3 mg/kg, po or 0.46 mg/kg, iv after 48 hrs by LC-MS/MS analysis; type: ADME, organism-based, Canis lupus familiaris; design: time 48 hrs, dose 3 mg/kg; conditions: in vivo
[29] = Clearance in Beagle dog plasma at 3 mg/kg, po or 0.46 mg/kg, iv after 48 hrs by LC-MS/MS analysis; type: ADME, organism-based, Canis lupus familiaris
[30] = Mean residence time in Beagle dog at 3 mg/kg, po or 0.46 mg/kg, iv after 48 hrs by LC-MS/MS analysis; type: ADME, organism-based, Canis lupus familiaris; conditions: in vivo
[31] = Cmax in cynomolgus monkey at 10 mg/kg, po or 0.1 mg/kg, iv after 48 hrs by LC-MS/MS analysis; type: ADME, organism-based, Macaca fascicularis; design: time 48 hrs, dose 10 mg/kg; conditions: in vivo
[32] = Unbound Cmax in Beagle dog at 3 mg/kg, po or 0.46 mg/kg, iv after 48 hrs by LC-MS/MS analysis; type: ADME, organism-based, Canis lupus familiaris; conditions: in vivo
[33] = molecular target: T1, Cystic fibrosis transmembrane conductance regulator; assay: Potentiation of CFTR F508del mutant (unknown origin) expressed in FRT cells assessed as chloride transport by measuring membrane potential in presence of forskolin; type: cell-based
[34] = Toxicity in Wistar Han rat assessed as NOAEL; conditions: in vivo, dose 10 mg/kg
[35] = molecular target: T2, Cystic fibrosis transmembrane conductance regulator; assay: Potentiation of wild type CFTR (unknown origin) expressed in HBE cells assessed as change in short circuit current in presence of forskolin and amiloride; type: cell-based
Target sequence in this assay (P13569 whole entry): as the sequence (P13569 whole entry, looked up) above

[36] = Toxicity in Wistar Han rat assessed as tolerability at 100 mg/kg, po after 2 days; type: organism-based; conditions: in vivo, 48 h, time 2 day
[37] = molecular target: Cystic fibrosis transmembrane conductance regulator (Homo sapiens, UniProt P13569, G551D); assay: Potentiation of CFTR G551D mutant (unknown origin) expressed in FRT cells assessed as chloride transport by measuring membrane potential in presence of forskolin; type: cell-based
Sequence of Cystic fibrosis transmembrane conductance regulator (Homo sapiens, UniProt P13569, G551D) (P13569 whole entry G551D): as the sequence (P13569 whole entry, looked up) above, with G551D counted along it

[38] = Cmax in Sprague-Dawley rat at 3 mg/kg, po and 1 mg/kg, iv measured upto 48 hrs by LC-MS/MS analysis; type: ADME, organism-based; design: dose 3 mg/kg, time <=48; conditions: in vivo
[39] = molecular target: T1, Cystic fibrosis transmembrane conductance regulator; assay: Potentiation of CFTR F508 deletion mutant (unknown origin) expressed in HBE cells assessed as change in short circuit current in presence of forskolin and amiloride; type: cell-based
[40] = system: Cystic fibrosis transmembrane conductance regulator (Homo sapiens), P13569 [F508del]; assay: Potentiation of CFTR F508del mutant (unknown origin) expressed in FRT cells assessed as chloride transport by measuring membrane potential in presence of forskolin relative to PG-01; type: cell-based; conditions: filed as activator
[41] = system: Cystic fibrosis transmembrane conductance regulator (Homo sapiens), P13569 [F508del]; assay: Potentiation of CFTR F508 deletion mutant (unknown origin) expressed in HBE cells assessed as change in short circuit current in presence of forskolin and amiloride relative to PG-01; type: cell-based; conditions: filed as activator

- clearance [1]: 53 mL/min/kg
- solubility [2]: 177 µg/mL (≈ 447 µM)
- Cmax [3]: 271 nM
- EC50 [4]: 9 nM
- Activity [5]: 100%
- MRT [6]: 1 h
- bioavailability [7]: 32%
- Vd [8]: 3.2 L/kg
Compound: Nc1cc(C(F)(F)F)c(Br)nc1C(=O)NC[C@@H](O)C(F)(F)F

- MRT [9]: 10.2 h
- Activity [10]: 79%
- fCmax [11]: 276 nM
- Activity [12]: 87%
- solubility [2]: 237 µg/mL (≈ 656 µM)
- bioavailability [13]: 26%
- Vd [14]: 3 L/kg
- fCmax [15]: 132 nM
- Vd [16]: 3.5 L/kg
- clearance [18]: 41 mL/min/kg
- MRT [19]: 3.3 h
- clearance [20]: 18 mL/min/kg
- EC50 [21]: 113 nM
- bioavailability [22]: 146%
- fraction unbound at 4 h, 5 µM [23]: 0.097
- clearance [24]: 5 mL/min/kg
- EC50 [4]: 47 nM
- Vd [25]: 7.5 L/kg
- Activity [26]: 40%
- clearance [27]: 20.2 mL/min/kg
- Cmax [28]: 1950 nM
- Activity [5]: 96%
- clearance [29]: 29 mL/min/kg
- MRT [30]: 4.4 h
- Cmax [31]: 2300 nM
- fCmax [32]: 102 nM
- EC50 [33]: 79 nM
- EC50 [35]: 72 nM
- EC50 [37]: 497 nM
- Cmax [38]: 1360 nM
- EC50 [39]: 39 nM
- Activity [40]: 92%
- bioavailability [7]: 90%
- Activity [41]: 84%
Compound: COc1nc(C(=O)NC[C@](C)(O)C(F)(F)F)c(N)cc1C(F)(F)F [ICENTICAFTOR]
- Activity [17]: Non-Toxic
- NOAEL [34]: 10 mg/kg
- Activity [36]: Non-Toxic
